Test results: US8551999B2, “Heterocyclic compound and pharmaceutical composition thereof” (Otsuka Pharmaceutical Co., Ltd., priority 2007, dated 2013)
Structures can show the parent of a compound that is named as a salt.

Experiments:
[1] = system: human chronic myelocytic leukemia cells (KU812); assay: Antiproliferative effect on cancer cells (in vitro), WST-8 assay, KU812; type: cell-based; details: 5 days incubation with test compound
Method: The growth inhibition on human chronic myelocytic leukemia cells (KU812) was determined by a WST-8 assay according to the method of Singh A K, et al. (Cancer Lett. 1996 Oct. 1; 107(1): 109-15.). In this method, KU812 cells were seeded in RPMI 1640 medium containing 10% fetal bovine serum in a 96-well microplate and incubated at 37° C. for 24 hours in the presence of 5% carbon dioxide. Then, the test compound was added and the cells were incubated for another 5 days. After incubation, 15 μL of 5 mM WST-8 (2-(2-methoxy-4-nitrophenyl)-3-(4-nitrophenyl)-5-(2,4-disulfenyl)-2H-tetrazolium, monosodium salt) was added and the cells were incubated for 2 hours. After the 2-hour incubation, 15 μL of 1% SDS (sodium dodecyl sulfate) was added and the optical density was determined at the measurement wavelength of 450 nm and the reference wavelength of 630 nm, and the difference was calculated. The cell growth activity in each well was defined as the value determined by subtracting the OD in the control well not containing cells (the difference in absorbance between 492 nm and 690 nm) from that in the test well.
(§1) The 50% inhibitory concentration (IC50 (nM)) of the test compound was determined by comparing the cell growth activity in the well containing the test compound with that of the control not containing the test compound.

[2] = system: human hepatic cancer cells (HuH-7); assay: Antiproliferative effect on cancer cells (in vitro), sulforhodamine B method, HuH-7; type: cell-based; details: HuH-7 cells, 5 days incubation with test compound
Method: (§2) Growth inhibition of human hepatic cancer cells (HuH-7) was determined by the sulforhodamine B method based on the method of Skehan P. et al. (J Natl Cancer Inst. 1990 Jul. 4; 82(13): 1107-12). In the study, HuH-7 cells were seeded on DMEM medium containing 10% fetal bovine serum in a 96-well microplate. After 24-hour incubation at 37° C. in the presence of 5% carbon dioxide, the test compound was added and the cells were incubated for another 5 days. After incubation, a trichloroacetic acid solution was added to yield the final concentration of 10% and the cells were left to stand at 4° C. for 1 hour to fix. Then, the cells were washed with water to remove the medium and trichloroacetic acid and dried in the air. The dried cells were stored at 4° C. until they were stained with sulforhodamine B. To each well, 1% acetic acid solution containing 0.4% sulforhodamine B was added and left to stand for 20 to 30 minutes at room temperature. After discarding the supernatant, each well was washed with 1% acetic acid solution, and 10 mM Tris ([…]) solution was added while stirring to elute the dye taken into the cells. Then, the optical density was determined at the measurement wavelength of 492 nm and the reference wavelength of 690 nm, and the difference was calculated. The cell growth activity in each well was defined as the value determined by subtracting the OD in the control well not containing cells (the difference in absorbance between 492 nm and 690 nm) from that in the test well.
as §1

[3] = system: human pancreatic cancer cells (HPAC); assay: Antiproliferative effect on cancer cells (in vitro), sulforhodamine B method, HPAC; type: cell-based; details: 5 days incubation with test compound
Method: as §2, §1
The growth inhibition on human pancreatic cancer cells (HPAC) was also determined by the above method using HPAC instead of HuH-7 and RPMI 1640 medium containing 10% fetal bovine serum instead of the DMEM medium containing 10% fetal bovine serum.

[4] = system: STAT3; assay: Inhibitory effect on IL-6-induced STAT3 phosphorylation in human myeloma cells (in vitro); type: cell-based; details: U266B1 human myeloma cells, IL-6 1 ng/mL, pSTAT3 (Y705) by flow cytometry
Method: The inhibitory effect of the test compound on phosphorylation of STAT3 (signal transducer and activator of transcription-3) in human myeloma cells ([…]) induced by interleukin-6 (IL-6) was examined using the modified method of Tochizawa S. et al. (J Immunol Methods. 2006 Jun. 30; 313(1-2): 29-37). In the study, U266B1 cells were seeded in an RPMI 1640 medium containing 10% fetal bovine serum (FBS) in a 12-well plate and incubated at 37° C. for 2 hours in the presence of carbon dioxide. After incubation, IL-6 was added to yield the concentration of 1 ng/mL and the cells were incubated at 37° C. for 15 minutes in the presence of 5% carbon dioxide. After fixation of the cells by the addition of a buffer containing formaldehyde (Lyse/Fix Buffer, BD Biosciences) at room temperature for 10 minutes, the suspension was centrifuged to remove the supernatant and the cells were treated with ice-cold methanol for 10 minutes to improve the permeability of the cell membrane. The cells were centrifuged to remove methanol and washed twice with Dulbecco's phosphate buffered saline (D-PBS) containing 2% fetal bovine serum (FBS). A fluorescence-labeled anti-phosphorylated STAT3 (pSTAT3) antibody (Alexa Fluor 488-labeled anti-pSTAT3 (Y705) antibody, BD Biosciences) was added for staining in an ice bath for 30 minutes.
The cells were washed once with 2% FBS-containing D-PBS and suspended in 2% FBS-containing D-PBS, and the fluorescence intensity was determined using a flow cytometer (FACS Sort, BD Biosciences). The ratio of fluorescence intensity in the test group to the control group (T/C) was determined from the difference in the geometric mean of pSTAT3 fluorescence intensity between the test compound group of each concentration and the non-stimulated control group according to the following equation by defining the difference in the geometric mean of pSTAT3 fluorescence intensity between the IL-6 induced control and the non-stimulated control as 100%. T/C(%)=([…] of pSTAT3 fluorescence intensity in the cells treated with the test compound—geometric mean of pSTAT3 fluorescence intensity in non-stimulated control)/(geometric mean of fluorescence intensity of IL-6-induced pSTAT3 in the control−geometric mean of pSTAT3 fluorescence intensity in non-stimulated control)×100.
The concentration of the test compound inhibiting phosphorylation of STATS at 50% (IC50; concentration of the test compound corresponding to 50% T/C(%)) was determined using T/C(%) values at the respective concentrations and defined as the index for the inhibitory activity.

[5] = system: LI90 cells, a human hepatic stellate cell line; assay: Inhibitory effect on collagen synthesis (in vitro); type: cell-based; details: in the presence of recombinant human TGF-β1, 3H-proline labelled collagen in supernatant
Method: Inhibitory Effect on Collagen Synthesis (In Vitro)
LI90 cells, a human hepatic stellate cell line, were suspended in DMEM (Dulbecco's modified eagle medium) supplemented with 10% inactivated FBS (fetal bovine serum), seeded on a 12-well plate and cultured in a CO2 incubator (preset temperature: 37° C., preset CO2 concentration: 5%). After being cultured for 24 hours, the cells were washed with D-PBS (Dulbecco's phosphate buffered saline), placed in MEM (Eagle's minimum essential medium) supplemented with 0.1% inactivated FBS and then cultured in a CO2 incubator. After being cultured for 3 days, the cells were again washed with D-PBS, placed in MEM (Eagle's minimum essential medium) supplemented with 0.1% inactivated FBS and treated with or without a test compound in the presence of […] recombinant human TGF-β1 (transforming growth factor-β1) in a CO2 incubator for 16 hours. After the incubation, the cells were washed with D-PBS and the medium was replaced with MEM containing 0.25 mM ascorbate. A radio-labeled compound, ^3H-proline, was then added to the culture medium to radio-label the collagen proteins produced. After being cultured for 24 hours, the supernatant was collected and the collagen proteins were extracted from the supernatant as acid-soluble fractions. The amount of collagen produced was determined by measuring the radioactivity contained in the fractions. A concentration of test compound that produced 50% inhibition [IC50 value (nM)] on collagen synthesis was calculated by comparing the radioactivity count in a supernatant of test-compound-treated cells with that of untreated cells (control).

SMILES: CCOc1ccc(CN2CCN(C(=O)c3cc4cc(Oc5ccc(N(C)C(=O)c6ccc(C(F)(F)F)cc6)c(C)n5)ccc4n3C)CC2)cc1 [Example 368, N-(6-{2-[4-(4-Ethoxybenzyl)piperazine-1-carbonyl]-1-methyl-1H-indol-5-yloxy}-2-methylpyridin-3-yl)-h=methyl-4-trifluoromethyl-benzamide hydrobromide]
- IC50 [1]: < 2 nM
- IC50 [2]: < 10 nM
- IC50 [3]: < 70 nM

SMILES: COc1ccc(S(=O)(=O)N(C)c2ccc(Oc3ccc4cc(C(=O)N5CCN(Cc6ccc(OCC(F)(F)F)cc6)CC5)n(C)c4c3)nc2)cc1.Cl [Example 73, 4-Methoxy-N-methyl-N-[6-(1-methyl-2-{4-[4-(2,2,2-trifluoro-ethoxy)benzyl]piperazine-1-carbonyl}-1H-indol-6-yloxy)pyridin-3-yl]benzenesulfonamide hydrochloride]
- IC50 ([1]; Homo sapiens, 120 h): < 2 nM
- IC50 ([2]; Homo sapiens, 120 h): < 10 nM
- IC50 ([3]; Homo sapiens, 120 h): < 70 nM
- melting point: 213.4 to 214.1 °C

SMILES: Cc1ccc(S(=O)(=O)N(C)c2ccc(Oc3ccc4cc(C(=O)N5CCN(Cc6ccc7c(c6)OC(F)(F)O7)CC5)n(C)c4c3)nc2)cc1.Cl [Example 526, N-(6-{2-[4-(2,2-Difluorobenzo[1,3]dioxol-5-ylmethyl)piperazine-1-carbonyl]-1-methyl-1H-indol-6-yloxy}pyridin-3-yl)-4,N-dimethyl-benzenesulfonamide hydrochloride]
- IC50 [4]: < 10 nM
- melting point: 240 to 243 °C

SMILES: Cc1c(Oc2ccc(N(C)C(=O)c3ccc(C(F)(F)F)cc3)cn2)ccc2c1cc(C(=O)N1CCN(Cc3ccc(C(C)C)cc3)CC1)n2C [Example 428, N-(6-{2-[4-(4-Isopropylbenzyl)piperazine-1-carbonyl]-1,4-dimethyl-1H-indol-5-yloxy}pyridin-3-yl)-N-methyl-4-trifluoro-methylbenzamide hydrobromide]
- IC50 [1]: < 2 nM
- IC50 [5]: < 10 nM
- IC50 [2]: < 10 nM
- IC50 [3]: < 70 nM

SMILES: CN(C(=O)c1ccc(C(F)(F)F)cc1)c1ccc(Oc2ccc3c(c2)cc(C(=O)N2CCN(Cc4ccc(OC(F)(F)C(F)F)cc4)CC2)n3C)nc1.O=C(O)/C=C\C(=O)O [Example 403, N-Methyl-N-[6-(1-methyl-2-{4-[4-(1,1,2,2-tetrafluoroethoxy)-benzyl]piperazine-1-carbonyl}-1H-indol-5-yloxy)pyridin-3-yl]-4-trifluoromethylbenzamide maleate]
- IC50 [4]: < 10 nM
- melting point: 137 to 139 °C

SMILES: Br.CC(C)Oc1ccc(CN2CCN(C(=O)c3cc4ccc(Oc5ccc(N(C)C(=O)c6ccc(C(F)(F)F)cc6)cn5)cc4n3C)CC2)cc1 [Example 421, N-(6-{2-[4-(4-Isopropoxybenzyl)piperazine-1-carbonyl]-1-methyl-1H-indol-6-yloxy}pyridin-3-yl)-N-methyl-4-trifluoromethyl-benzamide hydrobromide]
- IC50 [4]: < 10 nM
- melting point: 251 to 253 °C

SMILES: Br.CN(C(=O)c1ccc(C(F)(F)F)cc1)c1ccc(Oc2ccc3cc(C(=O)N4CCN(Cc5ccc(C#N)cc5)CC4)n(C)c3c2)nc1 [Example 321, N-(6-{2-[4-(4-Cyanobenzyl)piperazine-1-carbonyl]-1-methyl-1H-indol-6-yloxy}pyridin-3-yl)-N-methyl-4-trifluoromethylbenzamide hydrobromide]
- IC50 [4]: < 10 nM
- melting point: 267 to 270 °C

SMILES: CCc1ccc(CN2CCN(C(=O)c3cc4cc(Oc5ccc(N(C)C(=O)c6ccc(C(F)(F)F)cc6)cn5)ccc4n3C)CC2)cc1.O=C(O)C(=O)O [Example 391, N-(6-{2-[4-(4-Ethylbenzyl)piperazine-1-carbonyl]-1-methyl-1H-indol-5-yloxy}pyridin-3-yl)-N-methyl-4-trifluoromethylbenzamide oxalate]
- IC50 ([1]; Homo sapiens, 120 h): < 2 nM
- IC50 ([2]; Homo sapiens, 120 h): < 10 nM
- IC50 ([3]; Homo sapiens, 120 h): < 70 nM
- melting point: 167 to 169 °C

SMILES: CCOc1ccc(CN2CCN(C(=O)c3cc4cc(Oc5ccc(N(C)C(=O)c6ccc(C(F)(F)F)cc6)cn5)ccc4n3C)CC2)cc1.O=C(O)/C=C\C(=O)O [Example 342, N-(6-{2-[4-(4-Ethoxybenzyl)piperazine-1-carbonyl]-1-methyl-1H-indol-5-yloxy}pyridin-3-yl)-N-methyl-4-trifluoromethylbenzamide maleate]
- IC50 [4]: < 10 nM
- melting point: 131 to 135 °C

SMILES: Cc1ccc(S(=O)(=O)N(C)c2ccc(Oc3ccc4cc(C(=O)N5CCN(Cc6ccc(OC(C)C)cc6)CC5)n(C)c4c3)nc2)cc1 [Example 525, N-(6-{2-[4-(4-Isopropoxybenzyl)piperazine-1-carbonyl]-1-methyl-1H-indol-6-yloxy}pyridin-3-yl)-4,N-dimethylbenzenesulfonamide]
- IC50 [4]: < 10 nM
- melting point: 140.9 to 145.8 °C

SMILES: Cn1c(C(=O)N2CCN(Cc3ccc(-c4csnn4)cc3)CC2)cc2ccc(Oc3ccc(NC(=O)c4ccc(C(F)(F)F)cc4)cn3)cc21 [Example 571, N-(6-{1-Methyl-2-[4-(4-[1,2,3]thiadiazol-4-ylbenzyl)piperazine-1-carbonyl]-1H-indol-6-yloxy}pyridin-3-yl)-4-trifluoromethyl-benzamide]
- IC50 ([1]; Homo sapiens, 120 h): < 2 nM
- IC50 ([2]; Homo sapiens, 120 h): < 10 nM
- IC50 ([3]; Homo sapiens, 120 h): < 70 nM
- melting point: 220 to 220.8 °C
